# Reference: US12606561B2, “Substituted pyrazolo[1,5-a][1,3,5]triazines as CDK inhibitors” (QURIENT CO., LTD., priority 2018, dated 2026)
# How the values were obtained:
# [1] = biological target: T1, CDK7/Cyclin H/MNAT1 (Homo sapiens, UniProt P50613); assay: Enzymatic assay for CDK7 (LANCE Ultra kinase assay, FRET based); format: biochemical; details: for IC50: ATP at Km
# T1 construct: purchased Invitrogen PR6749B
# In short: (§1)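 FRET read-out: Eu-labeled anti-phospho-antibody binding a phosphorylated ULight peptide. Purified CDK–cyclin complex, ATP at Km.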
# [2] = biological target: T2, CDK5/p25 (Homo sapiens, UniProt Q00535); assay: Enzymatic assay for CDK5 (LANCE Ultra kinase assay, FRET based); format: biochemical; details: ATP at Km
# T2 construct: purchased Invitrogen PR8543B
# In short: (§2)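 TR-FRET kinase assay at ATP Km with ULight-MBP peptide (68 nM) and Eu-anti-phospho-MBP antibody; CDK2/Cyclin A at […], CDK5/p25 at […]. 8-dose 4-fold compound dilutions; 60 min kinase reaction at 23° C., EDTA stop, 60 min detection, read at 615/665 nm.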
# [3] = system: MV4-11; assay: Cellular MV4-11 viability assay (CellTiter-Glo, 72 hours); format: cell-based; details: Homo sapiens; MV4-11 cells
# Method: Human […] cell line, MV4-11_(ATCC, Cat #CRL-9591), NSCLC (Non-small cell lung cancer) cell line H460 (ATCC, Cat #HTB-177), A2780 (ECACC, Cat #93112519) and OVCAR-3(ATCC, Cat #HTB-161) were obtained from ATCC. Cells were grown in RPMI-1640 media (Invitrogen, Cat #22400-089) supplemented with 10% FBS (Invitrogen, Cat #10099141) and 1% penicillin/streptomycin (Invitrogen, Cat #15070063) and cultured at 37° C., 5% CO2 in a humidified chamber. All cell lines were routinely tested for mycoplasma.
# To effect of the CDK7 inhibitor to inhibit the growth of target cancer cells, viability assay were conducted a 72 hour time period. Briefly, the candidate cell line was plated in 96 well plate at the following density of cells respectively. 1×10^4 cells/well for MV4-11, 5×10^3 for H460 and OVCAR-3, and 1×10^3 for A2780. After 24 hours, the cells were treated with various concentrations of the compound (ranging from 0.0015 uM to 10 uM). DMSO solvent without compound served as a control and final DMSO concentration lest than 0.1%. After 72 hours of incubation at 37° C., 5% CO2 incubator, cells were analyzed for the viability using the CellTiter-Glo Luminescent Cell Viability Assay (Promega, Cat #G7570). All viability assays were performed in duplicate and Luminescence was read using an Envision (Perkin Elmer, USA). Data was analyzed using XLfit software.
# [4] = biological target: T3, CDK2/Cyclin A (Homo sapiens, UniProt P24941); assay: Enzymatic assay for CDK2 (LANCE Ultra kinase assay, FRET based); format: biochemical; details: ATP at Km
# T3 construct: purchased Invitrogen PV6290
# In short: as §2
# [5] = system: A2780; assay: A2780 viability assay (CellTiter-Glo, 72 hours); format: cell-based; details: Homo sapiens; A2780 cells
# In short: (§3)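 CellTiter-Glo luminescence read-out after 72 h compound exposure at 37° C, 5% CO2, duplicates. Seeding densities: MV4-11 1×10^4 cells/well, OVCAR-3 5×10^3, A2780 1×10^3. Dose range 0.0015 uM to 10 uM, added 24 h post-plating; DMSO control, final <0.1%.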
# [6] = biological target: T4, CDK1/Cyclin B (Homo sapiens, UniProt P06493); assay: Enzymatic assay for CDK1 (LANCE Ultra kinase assay, FRET based); format: biochemical; details: ATP at Km; read-out: CDK1 enzymatic activity IC50
# T4 construct: purchased Invitrogen PR4768C
# In short: as §1
# [7] = system: OVCAR-3; assay: OVCAR-3 viability assay (CellTiter-Glo, 72 hours); format: cell-based; details: Homo sapiens; OVCAR-3 cells
# In short: as §3
# T2 sequence (Q00535 whole entry): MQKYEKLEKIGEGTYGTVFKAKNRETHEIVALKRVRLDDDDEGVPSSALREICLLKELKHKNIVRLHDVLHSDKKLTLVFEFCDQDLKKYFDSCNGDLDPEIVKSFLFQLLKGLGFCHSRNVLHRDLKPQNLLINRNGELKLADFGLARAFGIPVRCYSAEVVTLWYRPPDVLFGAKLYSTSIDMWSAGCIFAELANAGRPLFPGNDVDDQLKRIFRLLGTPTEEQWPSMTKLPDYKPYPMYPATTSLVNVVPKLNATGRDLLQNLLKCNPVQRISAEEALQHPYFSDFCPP
# T2 sequence (Q15078 99-307 partner limits assumed): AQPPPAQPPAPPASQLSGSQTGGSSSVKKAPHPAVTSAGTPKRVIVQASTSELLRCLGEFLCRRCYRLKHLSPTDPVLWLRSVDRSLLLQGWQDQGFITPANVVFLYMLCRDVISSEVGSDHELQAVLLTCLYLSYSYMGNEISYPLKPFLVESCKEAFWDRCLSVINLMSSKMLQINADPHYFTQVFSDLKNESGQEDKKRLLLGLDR
# T4 sequence (P06493 whole entry): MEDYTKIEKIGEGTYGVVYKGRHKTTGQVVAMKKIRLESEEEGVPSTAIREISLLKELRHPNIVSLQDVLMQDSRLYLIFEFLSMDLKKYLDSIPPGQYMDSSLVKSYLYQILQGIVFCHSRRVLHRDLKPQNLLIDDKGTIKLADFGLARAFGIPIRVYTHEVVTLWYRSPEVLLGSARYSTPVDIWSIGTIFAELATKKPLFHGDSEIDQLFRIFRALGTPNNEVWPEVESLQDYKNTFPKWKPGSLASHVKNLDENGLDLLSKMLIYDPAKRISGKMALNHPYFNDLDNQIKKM
# T4 sequence (P14635 whole entry partner): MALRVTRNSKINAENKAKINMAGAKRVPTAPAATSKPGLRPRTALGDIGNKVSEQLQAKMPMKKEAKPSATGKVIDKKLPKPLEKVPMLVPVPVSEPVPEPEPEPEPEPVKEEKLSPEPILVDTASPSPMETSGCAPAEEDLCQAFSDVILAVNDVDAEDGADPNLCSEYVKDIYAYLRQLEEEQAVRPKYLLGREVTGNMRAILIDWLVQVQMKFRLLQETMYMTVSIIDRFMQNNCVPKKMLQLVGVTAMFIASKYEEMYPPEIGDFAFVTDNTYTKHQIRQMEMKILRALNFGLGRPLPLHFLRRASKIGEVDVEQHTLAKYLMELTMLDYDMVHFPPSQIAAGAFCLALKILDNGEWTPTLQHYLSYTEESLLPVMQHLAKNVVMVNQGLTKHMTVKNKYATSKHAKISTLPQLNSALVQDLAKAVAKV
# T1 sequence (P50613 whole entry): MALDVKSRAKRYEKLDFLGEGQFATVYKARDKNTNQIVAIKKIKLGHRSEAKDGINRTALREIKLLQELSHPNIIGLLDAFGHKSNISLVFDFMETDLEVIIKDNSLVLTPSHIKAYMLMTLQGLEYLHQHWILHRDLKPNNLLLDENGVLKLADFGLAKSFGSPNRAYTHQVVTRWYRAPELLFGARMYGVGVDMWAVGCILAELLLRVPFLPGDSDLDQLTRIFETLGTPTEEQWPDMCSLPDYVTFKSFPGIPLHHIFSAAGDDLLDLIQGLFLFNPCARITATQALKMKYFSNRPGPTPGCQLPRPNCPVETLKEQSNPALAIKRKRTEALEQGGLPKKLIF
# T1 sequence (P51946 whole entry partner): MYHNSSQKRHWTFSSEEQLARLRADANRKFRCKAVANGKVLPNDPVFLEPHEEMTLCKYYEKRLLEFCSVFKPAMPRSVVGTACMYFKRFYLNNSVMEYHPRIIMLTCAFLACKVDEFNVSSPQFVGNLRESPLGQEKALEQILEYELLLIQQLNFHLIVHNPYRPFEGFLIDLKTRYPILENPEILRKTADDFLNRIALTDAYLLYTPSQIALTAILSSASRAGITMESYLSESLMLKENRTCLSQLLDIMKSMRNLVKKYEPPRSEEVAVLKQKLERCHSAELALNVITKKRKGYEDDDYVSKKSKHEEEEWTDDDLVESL
# T1 sequence (P51948 whole entry partner): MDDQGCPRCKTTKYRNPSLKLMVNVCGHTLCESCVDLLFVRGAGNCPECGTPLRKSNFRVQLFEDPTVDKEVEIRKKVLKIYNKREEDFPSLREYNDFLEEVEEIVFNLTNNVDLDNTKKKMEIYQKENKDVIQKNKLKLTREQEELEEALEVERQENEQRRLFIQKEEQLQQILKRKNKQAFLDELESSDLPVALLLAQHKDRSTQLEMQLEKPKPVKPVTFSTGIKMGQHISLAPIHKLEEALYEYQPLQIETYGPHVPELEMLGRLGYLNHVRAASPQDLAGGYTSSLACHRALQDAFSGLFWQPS
Compound,IC50 [1] [nM],CDK1/CDK7: Selectivity of CDK7 inhibition over CDK1 inhibition [1],CDK2/CDK7: Selectivity of CDK7 inhibition over CDK2 inhibition [1],CDK5/CDK7: Selectivity of CDK7 inhibition over CDK5 inhibition [1],IC50 [2] [nM],IC50 [3] [nM],IC50 [4] [nM],IC50 [5] [nM],IC50 [6] [nM],IC50 [7] [nM]
C=C(F)C(=O)Nc1ccc2c(-c3ccccc3CNc3nc(NC[C@H]4CCNC[C@@H]4O)nc4c(C(C)C)cnn34)nccc2c1 [Compound 64],< 100,A (A indicates [fold] > 500),A (A indicates [fold] > 500),A (A indicates [fold] > 500),> 1000,< 1000,> 1000,< 1000,> 1000,< 1000
CC(C)c1cnn2c(NCc3ccccc3-c3nccc4cc(NC(=O)/C=C/CN(C)C)ccc34)nc(N3CCC(O)C3)nc12 (racemic) [Compound 37],100 to 1000,B (B indicates 50 < [fold] ≤ 500),B (B indicates 50 < [fold] ≤ 500),B (B indicates 50 < [fold] ≤ 500),> 1000,< 1000,> 1000,< 1000,> 1000,< 1000
CC(C)c1cnn2c(NCc3ccccc3-c3nccc4cc(NC(=O)/C=C/CN(C)C)ccc34)nc(NCC3CCOCC3)nc12 [Compound 43],100 to 1000,B (B indicates 50 < [fold] ≤ 500),B (B indicates 50 < [fold] ≤ 500),B (B indicates 50 < [fold] ≤ 500),> 1000,< 1000,> 1000,< 1000,> 1000,< 1000
CC(C)c1cnn2c(NCc3ccccc3-c3nccc4cc(NC(=O)/C=C/CN(C)C)ccc34)nc(NCC3CCNC(=O)C3)nc12 (racemic) [Compound 30],100 to 1000,B (B indicates 50 < [fold] ≤ 500),B (B indicates 50 < [fold] ≤ 500),B (B indicates 50 < [fold] ≤ 500),> 1000,< 1000,> 1000,< 1000,> 1000,< 1000
CC(C)c1cnn2c(NCc3ccccc3-c3nccc4cc(NC(=O)/C=C/CN(C)C)ccc34)nc(NCCC3CNCCO3)nc12 (racemic) [Compound 51],< 100,A (A indicates [fold] > 500),A (A indicates [fold] > 500),A (A indicates [fold] > 500),> 1000,< 1000,> 1000,< 1000,> 1000,< 1000
C/C=C/C(=O)Nc1cccc2cc(-c3cccc(C)c3CNc3nc(NC[C@H]4CCNC[C@@H]4O)nc4c(C(C)C)cnn34)[nH]c12 [Compound 73],< 100,A (A indicates [fold] > 500),A (A indicates [fold] > 500),B (B indicates 50 < [fold] ≤ 500),> 1000,< 1000,> 1000,1000 to 10000,> 1000,1000 to 10000
CC(C)c1cnn2c(NCc3ccccc3-c3nccc4cc(NC(=O)/C=C/CN(C)CC(N)=O)ccc34)nc(N3CCC(N)CC3)nc12 [Compound 58],< 100,A (A indicates [fold] > 500),A (A indicates [fold] > 500),A (A indicates [fold] > 500),> 1000,< 1000,> 1000,1000 to 10000,> 1000,1000 to 10000
